From patent publication US12583938B2, “Protein biomarker and uses thereof” (Daiichi Sankyo Co., Ltd., priority 2013, dated 2026)
“Also recorded” adds a separate entry of the source. Where two headings read alike, the source gives them in different places.

Key:
[1] = test system: Stage IIIb/IV NSCLC; details: for On-Study Death / Primary Cause of On-Study Death: Adverse Event / Primary Cause of On-Study Death: Disease Progression / Primary Reason for Discontinuing Study Treatment: Death / Primary Reason for Discontinuing Study Treatment: Progressive Disease (Radiographic Progression) / Primary Reason for Discontinuing Study Treatment: Adverse Event: Enrolled/Randomized Analysis Set; for OS: Subjects (%) with events / OS: Subjects (%) without events (censored) / PFS: Subjects (%) with events / PFS: Subjects (%) without events (censored) / Progression-Free Survival, Time to event, Median / Overall Survival, Time to event, Median: Full Analysis Set; for Progression-Free Survival, Time to event, Median / Overall Survival, Time to event, Median: Kaplan-Meier Estimate; for Overall Survival, Time to event, Median: preliminary; for HR for PFS (pooled dose vs placebo): soluble HRG high group, + erlotinib
Protocol: (§1) In both portions of the study, subjects received 150 mg of erlotinib orally once daily. […] Tumors were to be assessed every 6 weeks (±3 days) up to the first 24 weeks of the study, then every 12 weeks (±7 days) independent of treatment cycle.
An “HRG high” subject was defined as a subject with observed soluble HRG concentration of higher than 980 pg/mL, the Quartile 3 of the sample set. Soluble HRC concentration was measured by the improved ELISA method disclosed herein.
At the point of primary analysis, the treatment assignment for all subjects was unblinded to designated study personnel for analysis after data were reconciled and cleaned, and a snapshot of the clean database was created. To minimize potential bias, individual treatment assignment was not divulged to subjects or Investigators until study closure.
All efficacy analyses were performed on the full analysis set, which includes all subjects in the randomized analysis set who received at least one dose of randomized study medication. The primary efficacy endpoint was PFS. PFS is defined as the time from the date of randomization to the earlier of the dates of the first objective documentation of radiographic disease progression or death due to any cause. A subject who was alive with no objective documentation of (radiographic) disease progression by the data cut-off date was to be censored at the date of the last evaluable tumor assessment. The key secondary efficacy endpoint, overall survival, was defined as the time from the date of randomization to death due to any cause and was analyzed in the same manner as the primary efficacy endpoint PFS.
Kaplan-Meier curves were generated for PFS and used to calculate medians and 95% CIs for each treatment group.
The stratification factors included histology (Adenocarcinoma vs Non-Adenocarcinoma) and best response to prior therapy (CR/PR/SD vs PD). […] Cox's proportional hazards model with the same stratification factors used for the stratified log-rank test.
Unless otherwise indicated, tog-rank p-values and HRs for PFS and OS were based on the primary analysis adjusted for the stratification factors at randomization as described above.

[2] = test system: HER3 phosphorylation in CaOV3 cells; assay: in vitro reduction of phospho-HER3 and phospho-AKT levels by Western blotting; format: cell-based, human; details: CaOV3, no basal HER3 activation, stimulated with exogenous heregulin; FIG. 9
Protocol: (§2) FIG. 9 depicts efficacy determined in vitro by measuring reduction of phospho-HER3 and phospho-AKT levels by Western blotting.
(§3) U3-1287 efficacy was determined in vitro by measuring reduction of phospho-HER3 and phospho-AKT levels.

[3] = test system: HER3 phosphorylation in A549 cells; assay: as above; format: cell-based, human; details: A549, endogenously express heregulin; FIG. 9
Protocol: as §2, §3

[4] = test system: MKN-45; assay: human cancer xenograft in mice, tumor growth inhibition; format: in vivo; details: MKN-45 xenograft, Gastric, HRG (WB) −
Protocol: (§4) The HRG biomarker was identified by analysing the anti-tumor activity of the anti-HER3 antibody U3-1287 on various human cancer xenografts in vivo and analysis of the expression of HRG of these cell lines in vitro. Human tumor cell lines of various indications were grown as xenografts in mice and treated with the anti-HER3 antibody U3-1287 for several weeks. Inhibition of tumor growth was analysed by comparing the tumor volumes of control mice and mice treated with U3-1287. Human tumor cell lines were grown in vitro and analysed for HRG protein expression by Western blotting.

[5] = test system: Sum225; assay: as above; format: in vivo; details: BC FISH + ve, HRG (WB) −
Protocol: as §4

[6] = test system: Calu-3; assay: as above; format: in vivo; details: Calu-3 xenograft, NSCLC, HRG (WB) +
Protocol: as §4

[7] = test system: HT-144; assay: as above; format: in vivo; details: HT-144 xenograft, Melanoma, HRG (WB) −
Protocol: as §4

[8] = test system: BxPC3; assay: as above; format: in vivo; details: Pancreas, HRG (WB) +
Protocol: as §4

[9] = test system: ZR75-1; assay: as above; format: in vivo; details: ZR75-1 xenograft, BC FISH + ve, HRG (WB) −
Protocol: as §4

[10] = test system: HCC 1569; assay: as above; format: in vivo; details: HCC 1569 xenograft, BC FISH + ve, HRG (WB) −
Protocol: as §4

[11] = test system: A549; assay: as above; format: in vivo; details: NSCLC, HRG (WB) +
Protocol: as §4

[12] = test system: NC-H1975; assay: as above; format: in vivo; details: NSCLC, HRG (WB) +
Protocol: as §4

[13] = test system: BT474; assay: as above; format: in vivo; details: BC FISH + ve, HRG (WB) −
Protocol: as §4

[14] = test system: HT-29; assay: as above; format: in vivo; details: HT-29 xenograft, Colon, HRG (WB) −
Protocol: as §4

[15] = test system: FaDu; assay: as above; format: in vivo; details: Head&Neck, HRG (WB) +
Protocol: as §4

[16] = test system: NCI-H441; assay: as above; format: in vivo; details: NSCLC, HRG (WB) −
Protocol: as §4

[17] = test system: MDA-MB453; assay: as above; format: in vivo; details: BC FISH + ve, HRG (WB) −
Protocol: as §4

[18] = test system: MCF-7; assay: as above; format: in vivo; details: MCF-7 xenograft, BC FISH + ve, HRG (WB) −
Protocol: as §4

[19] = test system: A375; assay: as above; format: in vivo; details: Melanoma, HRG (WB) −
Protocol: as §4

[20] = test system: HER3 phosphorylation in BT474 cells; assay: in vitro HER3 phosphorylation by Western blotting; format: cell-based, human; details: FIG. 10
Protocol: FIG. 10 depicts Western blots showing that U3-1287 can block […] basal HER3 phosphorylation.
as §3

[21] = monotherapy Phase 1 study of patritumab; format: in vivo
Protocol: A higher maintenance dose level of 18 mg/kg was also included to accommodate the possible effect of reduced tumor tissue penetration in the clinical setting relative to animal models.

[22] = test system: Stage IIIb/IV NSCLC; details: Phase 1b, 150 mg erlotinib daily + 18 mg/kg patritumab every 3 weeks, 7 subjects
Protocol: as §1

[23] = 9 mg/kg patritumab + erlotinib (N = 71)
[24] = 9 mg/kg patritumab + erlotinib (N = 72)
[25] = 18 mg/kg patritumab + erlotinib (N = 70)
[26] = 18 mg/kg patritumab + erlotinib (N = 72)

Molecule: C#Cc1cccc(Nc2ncnc3cc(OCCOC)c(OCCOC)cc23)c1 [erlotinib, reference compound]
- On-Study Death ([1]; Placebo + erlotinib (N = 71)): 13 subjects
- Primary Cause of On-Study Death: Adverse Event ([1]; Placebo + erlotinib (N = 71)): 5 subjects
- Primary Cause of On-Study Death: Disease Progression ([1]; Placebo + erlotinib (N = 71)): 8 subjects
- Primary Reason for Discontinuing Study Treatment: Death ([1]; Placebo + erlotinib (N = 71)): 4 subjects
- Primary Reason for Discontinuing Study Treatment: Progressive Disease (Radiographic Progression) ([1]; Placebo + erlotinib (N = 71)): 50 subjects
- OS: Subjects (%) with events ([1]; Placebo + erlotinib (N = 71)): 48 (67.6%) subjects (%)
- OS: Subjects (%) without events (censored) ([1]; Placebo + erlotinib (N = 71)): 23 (32.4%) subjects (%)
- PFS: Subjects (%) with events ([1]; Placebo + erlotinib (N = 71)): 59 (83.1%) subjects (%)
- PFS: Subjects (%) without events (censored) ([1]; Placebo + erlotinib (N = 71)): 12 (16.9%) subjects (%)
- Progression-Free Survival, Time to event, Median ([1]; Placebo + erlotinib (N = 71)): 1.6 months
- Overall Survival, Time to event, Median ([1]; Placebo + erlotinib (N = 71)): 7.2 months
- number of subjects with the response being CR/PR ([1]; placebo + erlotinib): 4 (5.6%) subjects (%)

Molecule: patritumab
- HER3 phosphorylation [2]: could be blocked
- Basal HER3 phosphorylation [3]: could be blocked
- In vivo efficacy (SA) [4]: Yes
- In vivo efficacy (SA) [5]: No
- In vivo efficacy (SA) [6]: Yes
- In vivo efficacy (SA) [7]: No
- In vivo efficacy (SA) [8]: Yes
- In vivo efficacy (SA) [9]: No
- In vivo efficacy (SA) [10]: No
- In vivo efficacy (SA) [11]: Yes
- In vivo efficacy (SA) [12]: Yes
- In vivo efficacy (SA) [13]: No
- In vivo efficacy (SA) [14]: Yes
- In vivo efficacy (SA) [15]: Yes
- In vivo efficacy (SA) [16]: No
- In vivo efficacy (SA) [17]: No
- In vivo efficacy (SA) [18]: No
- In vivo efficacy (SA) [19]: No
- efficacy on HER3 phosphorylation ([20]; BT474+HRG (exogenously added heregulin)): could be overcome by exogenously added heregulin
- efficacy on basal HER3 phosphorylation ([20]; BT474 basal, do not express heregulin): no efficacy
- ligand-dependent basal HER3 phosphorylation ([20]; Western blots): can block
- maximum tolerated dose ([21]; Phase 1 study): not reached
- dose limiting toxicity ([21]; in vivo): lack of dose limiting toxicity
- OS: Subjects (%) with events [1, 23]: 46 (64.8%) subjects (%)
- OS: Subjects (%) without events (censored) [1, 23]: 25 (35.2%) subjects (%)
- PFS: Subjects (%) with events [1, 23]: 52 (73.2%) subjects (%)
- PFS: Subjects (%) without events (censored) [1, 23]: 19 (26.8%) subjects (%)
- Progression-Free Survival, Time to event, Median [1, 23]: 2.5 months
- Overall Survival, Time to event, Median [1, 23]: 6.3 months
- On-Study Death [1, 24]: 9 subjects
- Primary Cause of On-Study Death: Adverse Event [1, 24]: 4 subjects
- Primary Cause of On-Study Death: Disease Progression [1, 24]: 4 subjects
- Primary Reason for Discontinuing Study Treatment: Adverse Event [1, 24]: 6 subjects
- Primary Reason for Discontinuing Study Treatment: Death [1, 24]: 2 subjects
- Primary Reason for Discontinuing Study Treatment: Progressive Disease (Radiographic Progression) [1, 24]: 45 subjects
- OS: Subjects (%) with events [1, 25]: 54 (77.1%) subjects (%)
- OS: Subjects (%) without events (censored) [1, 25]: 16 (22.9%) subjects (%)
- PFS: Subjects (%) with events [1, 25]: 58 (82.9%) subjects (%)
- PFS: Subjects (%) without events (censored) [1, 25]: 12 (17.1%) subjects (%)
- Progression-Free Survival, Time to event, Median [1, 25]: 1.4 months
- Overall Survival, Time to event, Median [1, 25]: 5.3 months
- On-Study Death [1, 26]: 20 subjects
- Primary Cause of On-Study Death: Adverse Event [1, 26]: 11 subjects
- Primary Cause of On-Study Death: Disease Progression [1, 26]: 8 subjects
- Primary Reason for Discontinuing Study Treatment: Adverse Event [1, 26]: 7 subjects
- Primary Reason for Discontinuing Study Treatment: Death [1, 26]: 11 subjects
- Primary Reason for Discontinuing Study Treatment: Progressive Disease (Radiographic Progression) [1, 26]: 42 subjects
- number of subjects with the response being CR/PR ([1]; high-dose patritumab (18 mg/kg every 3 weeks) + erlotinib): 5 (7.1%) subjects (%)
- number of subjects with the response being CR/PR ([1]; low-dose patritumab (18 mg/kg loading, 9 mg/kg maintenance every 3 weeks) + erlotinib): 9 (12.9%) subjects (%)
- improvement in PFS or OS ([1]; patritumab with erlotinib compared to erlotinib plus placebo, full analysis set (unselected ITT population)): no significant improvement
- HR for PFS (pooled dose vs placebo) ([1]; HRG protein concentration cut-off 0 (median) pg/mL, n 66): 0.58
- HR for PFS (pooled dose vs placebo) ([1]; HRG protein concentration cut-off 1622.5 pg/mL, n 39): 0.31
- HR for PFS (pooled dose vs placebo) ([1]; HRG protein concentration cut-off 2000 pg/mL, n 34): 0.28
- HR for PFS (pooled dose vs placebo) ([1]; HRG protein concentration cut-off 3000 pg/mL, n 30): 0.24
- HR for PFS (pooled dose vs placebo) ([1]; HRG protein concentration cut-off 4000 pg/mL, n 27): 0.26
- HR for PFS (pooled dose vs placebo) ([1]; HRG protein concentration cut-off 5000 pg/mL, n 23): 0.40
- HR for PFS (pooled dose vs placebo) ([1]; HRG protein concentration cut-off 980 (Q3) pg/mL, n 46): 0.41
- treatment difference in PFS and OS ([1]; subjects with tumors expressing low HRG at a protein level (<980 pg/mL), pooled patritumab + erlotinib vs placebo + erlotinib): no clear treatment difference
- AEs grade≥3, number of subjects [22]: 2 subjects
- patritumab-related AE reported in ≥2 subjects [22]: decreased appetite
- relation of grade≥3 AEs to patritumab [22]: none were related to patritumab
- tumor response [22]: No response was recorded
- DLTs ([22]; 18 mg/kg): no DLTs were seen; also recorded: No DLTs were reported
- subjects with serious AEs ([22]; four serious AEs): Three
